The values below come from patent US7276339B2 (H. Lundbeck A/S, priority 1998, dated 2007).

One data set has as its system normotensive rats. The experiment in a line: Blood pressure in anesthetized normotensive rats, intravenous administration. Format: in vivo, rat. From the text:
Rats were anesthetized with urethane and PE50 cannulae were placed in the femoral artery and vein for blood pressure monitoring and drug administration, respectively.

Data set [1] concerns the target T1, rat NPFF1 receptor (Rattus norvegicus, UniProt Q9EP86). Description: Functional activity at cloned rat NPFF1 in COS-7 cells. Format: cell-based. Details: expressed in transfected cells; host or cells: COS-7 (transient).
The next data set relates to anesthetized rats. Description: Distension-induced rhythmic contraction (DIRC) model of the micturition reflex in anesthetized rats. The following applies: i.v. The data set is classed as in vivo, rat. On the procedure:
The effects of compounds on the micturition reflex were assessed in the “distension-induced rhythmic contraction” (DIRC) model in rats. This model of the micturition reflex has been described in previous publications (e.g. 72, 73).
Female Sprague Dawley rats weighing approximately 300 g were anesthetized with subcutaneous urethane (1.2 g/kg). The trachea was cannulated with PE240 tubing to provide a clear airway throughout the experiment. A midline abdominal incision was made and the left and right ureters were isolated. The ureters were ligated distally (to prevent escape of fluids from the bladder) and cannulated proximally with PE10 tubing. The incision was closed using 4-0 silk sutures, leaving the PE10 lines routed to the exterior for the elimination of urine. The bladder was canulated via the transurethral route using PE50 tubing inserted 2.5 cm beyond the urethral opening. This cannula was secured to the tail using tape and connected to a pressure transducer. To prevent leakage from the bladder, the cannula was tied tightly to the exterior urethral opening using 4-0 silk.
To initiate the micturition reflex, the bladder was first emptied by applying pressure to the lower abdomen, and then filled with normal saline in 100 μl increments (maximum=2 ml) until spontaneous bladder contractions occurred (typically 20-40 mmHg at a rate of one contraction every 2 to 3 minutes. Once a regular rhythm was established, vehicle (saline) or test compounds were administered intravenously to examine their effects on bladder activity. The effect of a compound which inhibited the micturition reflex was expressed as its “disappearance time”, defined as the time between successive bladder contractions in the presence of the test compound minus the time between contractions before compound administration.

Data set [2] deals with T2, rat NPFF2 receptor (Rattus norvegicus, UniProt Q9EQD2).
T2 construct: The full-length rat NPFF2 clone was amplified from rat spinal cord cDNA; expressed in transfected cells; host or cells: COS-7
Description: Functional activity at cloned rat NPFF2 in COS-7 cells. Format: cell-based.

The next data set addresses T3, NPFF1 (SNORF2) (Rattus norvegicus, UniProt Q9EP86).
T3 construct: linearized plasmids or PCR products containing the complete coding region of the genes; expressed in transfected cells; host or cells: Xenopus laevis oocytes injected with synthetic RNA (T7 transcripts)
Description: Voltage-clamp electrophysiology, Xenopus oocytes injected with SNORF2 (NPFF1) and chimeric Gαq/z RNA. The data set is classed as cell-based. The following applies: oocytes with SNORF2 + Gαq/z. As to the method: Oocytes were harvested from Xenopus laevis and injected with mRNA transcripts as previously described (Quick and Lester, 1994; Smith et al., 1997). […] Three to eight hours prior to recording, oocytes were injected with 500 pg Gαq/z mRNA in order to observe coupling to Ca^++ activated Cl^− currents. Dual electrode voltage clamp (Axon Instruments Inc.) was performed using 3 M KCl-filled glass microelectrodes having resistances of 1-2 Mohm. Unless otherwise specified, oocytes were voltage clamped at a holding potential of −80 mV. During recordings, oocytes were bathed in continuously flowing (1-3 ml/min) medium containing 96 mM NaCl, 2 mM KCl, 1.8 mM CaCl2, 1 mM MgCl2, and 5 mM HEPES, pH 7.5 (ND96). Drugs were applied either by local perfusion from a […] glass capillary tube fixed at a distance of 0.5 mm from the oocyte, or by switching from a series of gravity fed perfusion lines.
Heterologous expression of GPCRs in Xenopus oocytes has been widely used to determine the identity of signaling pathways activated by agonist stimulation (Gundersen et al., 1983; Takahashi et al., 1987). Activation of the phospholipase C (PLC) pathway is assayed by applying test compound in ND96 solution to oocytes previously injected with mRNA for the mammalian receptor and observing inward currents at a holding potential of −80 mV. The appearance of currents that reverse at −25 mV and display other properties of the Ca^++-activated Cl^− (chloride) channel is indicative of mammalian receptor-activation of PLC and release of IP3 and intracellular Ca^++.

A further data set has as its target T4, NPFF-1 receptor (Rattus norvegicus, UniProt Q9EP86).
T4 construct: expressed in transfected cells; host or cells: COS-7 (transient), alone or co-transfected with Gq/Gz chimera
The experiment in a line: Total inositol phosphate release, Cos-7 cells transiently transfected with NPFF1. The data set is classed as cell-based.

Data set [3] concerns the target T2, rat NPFF2 receptor. The experiment in a line: [125I]D-Tyr-NPFF radioligand binding, cloned rat NPFF2. The following applies: Table 3, title HEK-293 cells (text: Cos-7), [125I]D-Tyr-NPFF. On the procedure:
(§1) Transfected cells from culture flasks are scraped into 5 ml of 20 mM Tris-HCl, 5 mM EDTA, pH 7.5, and lysed by sonication. The cell lysates are centrifuged at 1000 rpm for 5 min. at 4° C., and the supernatant is centrifuged at 30,000×g for 20 min. at 4° C. The pellet is suspended in binding buffer (50 mM Tris-HCl, 60 mM NaCl, 1 mM MgCl, 33 μM EDTA, 33 μM EGTA at pH 7.4 supplemented with 0.2% BSA, 2 μg/ml aprotinin, and 20 μM bestatin). Optimal membrane suspension dilutions, defined as the protein concentration required to bind less than 10% of the added radioligand, are added to 96-well polpropylene microtiter plates containing ^3H-labeled compound, unlabeled compounds, and binding buffer to a final volume of 250 μl. In equilibrium saturation binding assays membrane preparations are incubated in the presence of increasing concentrations of [^3H]-labeled compound. The binding affinities of the different compounds are determined in equilibrium competition binding assays, using [^125I]-labeled compound in the presence of ten to twelve different concentrations of the displacing ligands. Competition assay: 50 pM radioligand, 10-12 points. Binding reaction mixtures are incubated for 2 hr at 25° C., and the reaction stopped by filtration through a double layer of GF filters treated with 0.1% polyethyleneimine, using a cell harvester. Wash buffer: 50 mM Tris-HCl, 0.1% BSA. Radioactivity may be measured by scintillation counting and data are analyzed by a computerized non-linear regression program. Non-specific binding is defined as the amount of radioactivity remaining after incubation of membrane protein in the presence of 1 μM final concentration […]. Protein concentration may be measured by the Bradford method using Bio-Rad Reagent, with bovine serum albumin as a standard.
(§2) Additional pharmacological evaluation was done using 293 human embryonic kidney cells (HEK-293 cells) transiently expressing the genes encoding the human NPFF1, NPFF2, and rat NPFF1 receptors, as well as Cos-7 cells expressing the rat NPFF2 receptors.

Data set [4] concerns the target T1, rat NPFF1 receptor. Description: [125I]D-Tyr-NPFF radioligand binding, HEK-293 cells expressing rat NPFF1. More on the design: expressed in transfected cells. On the procedure:
as §1, §2

A further data set addresses T5, human NPFF2 receptor (Homo sapiens, UniProt Q9Y5X5).
T5 construct: BO89, was determined to be a full length clone with no point mutations; expressed in transfected cells; host or cells: HEK-293 (transient)
Description: [125I]D-Tyr-NPFF radioligand binding, HEK-293 cells expressing human NPFF2. The following applies: Table 3, HEK-293 cells, [125I]D-Tyr-NPFF. On the procedure: as §1, §2

Another data set concerns the target T6, human NPFF1 receptor (Homo sapiens, UniProt Q9GZQ6).
T6 construct: To obtain a full-length hNPFF1 construct in the correct orientation; expressed in transfected cells; host or cells: HEK-293 (transient)
The experiment in a line: [125I]D-Tyr-NPFF radioligand binding, HEK-293 cells expressing human NPFF1. On the procedure: as §1, §2

For data set [5] the following is noted: cited from earlier work.
The target in the next data set is T7, human NPY Y1 receptor (Homo sapiens, UniProt P25929).
T7 sequence (P25929 1-384): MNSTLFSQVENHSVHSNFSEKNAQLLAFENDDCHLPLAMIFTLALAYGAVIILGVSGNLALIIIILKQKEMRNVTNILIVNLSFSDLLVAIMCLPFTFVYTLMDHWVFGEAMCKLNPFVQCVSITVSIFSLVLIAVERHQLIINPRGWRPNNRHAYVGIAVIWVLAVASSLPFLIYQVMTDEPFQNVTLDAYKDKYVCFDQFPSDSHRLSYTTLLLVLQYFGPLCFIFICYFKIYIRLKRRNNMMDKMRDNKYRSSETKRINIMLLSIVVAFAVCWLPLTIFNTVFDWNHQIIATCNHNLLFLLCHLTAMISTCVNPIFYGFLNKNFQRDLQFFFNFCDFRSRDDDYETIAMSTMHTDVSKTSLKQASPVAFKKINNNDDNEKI
The conditions noted are these: cited from earlier work.

Where [6] appears, read: 0.3 mg/kg, 1 minute before the agonist.
Setting [7] is: COS-7 cells, read-out: EC50, rat NPFF1.

Where two headings read alike, the source gives them in different places. Non-standard residues stand in square brackets, D forms with d. Residues, ends and D or L forms follow the SMILES beside them. No end group written: not given here. NMeF = CN[C@@H](Cc1ccccc1)C(=O)O Where only a bound is given, the exact number is not on record here.

T1 sequence (Q9EP86 whole entry): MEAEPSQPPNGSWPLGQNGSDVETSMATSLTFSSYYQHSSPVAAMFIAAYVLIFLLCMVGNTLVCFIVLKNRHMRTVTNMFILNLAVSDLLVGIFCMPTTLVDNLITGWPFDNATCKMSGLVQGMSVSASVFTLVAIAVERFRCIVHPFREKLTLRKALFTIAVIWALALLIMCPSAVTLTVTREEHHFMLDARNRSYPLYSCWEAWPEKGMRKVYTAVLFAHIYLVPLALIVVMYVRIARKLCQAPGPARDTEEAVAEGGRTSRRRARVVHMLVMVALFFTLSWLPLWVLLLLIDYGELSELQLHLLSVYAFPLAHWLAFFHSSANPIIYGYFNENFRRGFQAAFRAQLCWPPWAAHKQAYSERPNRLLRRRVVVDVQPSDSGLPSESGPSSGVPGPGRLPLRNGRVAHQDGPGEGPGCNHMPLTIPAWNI
T2 sequence (Q9EQD2 whole entry): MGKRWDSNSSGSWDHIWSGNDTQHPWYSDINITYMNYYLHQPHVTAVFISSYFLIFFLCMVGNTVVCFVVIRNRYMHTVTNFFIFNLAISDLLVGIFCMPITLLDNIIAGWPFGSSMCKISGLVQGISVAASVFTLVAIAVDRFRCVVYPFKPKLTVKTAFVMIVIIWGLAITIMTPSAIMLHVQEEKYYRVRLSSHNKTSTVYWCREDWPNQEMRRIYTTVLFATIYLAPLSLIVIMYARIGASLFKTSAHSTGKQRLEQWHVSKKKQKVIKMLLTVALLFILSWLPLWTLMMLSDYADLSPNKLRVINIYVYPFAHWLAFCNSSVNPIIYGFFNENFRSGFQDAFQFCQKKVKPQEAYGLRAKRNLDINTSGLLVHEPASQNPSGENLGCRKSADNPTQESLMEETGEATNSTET
T5 sequence (Q9Y5X5 103-522): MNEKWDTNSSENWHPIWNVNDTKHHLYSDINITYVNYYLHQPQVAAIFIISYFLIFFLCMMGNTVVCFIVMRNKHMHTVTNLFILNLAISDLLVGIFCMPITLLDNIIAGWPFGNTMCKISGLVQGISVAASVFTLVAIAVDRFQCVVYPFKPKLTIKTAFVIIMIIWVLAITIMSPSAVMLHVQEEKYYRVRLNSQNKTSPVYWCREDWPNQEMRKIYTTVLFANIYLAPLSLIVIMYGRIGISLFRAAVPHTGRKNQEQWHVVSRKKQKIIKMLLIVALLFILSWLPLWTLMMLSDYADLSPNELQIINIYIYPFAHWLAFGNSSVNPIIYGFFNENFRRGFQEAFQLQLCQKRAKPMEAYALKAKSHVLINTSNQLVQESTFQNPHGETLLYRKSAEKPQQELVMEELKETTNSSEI
T4 sequence (Q9EP86 whole entry): as the sequence (Q9EP86 whole entry) above
T3 sequence (Q9EP86 whole entry): as above
T6 sequence (Q9GZQ6 whole entry): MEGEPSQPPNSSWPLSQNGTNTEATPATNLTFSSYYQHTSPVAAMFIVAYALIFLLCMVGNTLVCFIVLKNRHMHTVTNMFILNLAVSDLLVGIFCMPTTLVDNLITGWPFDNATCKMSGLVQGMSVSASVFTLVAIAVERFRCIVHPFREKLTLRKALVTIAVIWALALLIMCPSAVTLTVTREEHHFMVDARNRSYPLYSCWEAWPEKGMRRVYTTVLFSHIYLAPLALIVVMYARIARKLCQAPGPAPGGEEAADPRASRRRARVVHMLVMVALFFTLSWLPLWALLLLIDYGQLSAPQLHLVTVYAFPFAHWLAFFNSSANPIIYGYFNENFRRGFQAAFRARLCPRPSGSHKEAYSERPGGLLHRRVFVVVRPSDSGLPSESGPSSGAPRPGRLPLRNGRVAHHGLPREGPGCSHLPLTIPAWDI

For orientation: EC50 means the concentration needed to bring the measured effect to its halfway point. Turning to `CC(C)C[C@H](NC(=O)[C@@H](N)Cc1ccccc1)C(=O)N[C@@H](Cc1ccccc1)C(=O)N[C@@H](CCC(N)=O)C(=O)N1CCC[C@H]1C(=O)N[C@@H](CCC(N)=O)C(=O)N[C@@H](CCCNC(=N)N)C(=O)N[C@@H](Cc1ccccc1)C(N)=O` [NPFF], the “effect on mean arterial blood pressure (MAP)” value with normotensive rats (i.v., NPFF 1.0 mg/kg, fPP 0.1 mg/kg) is recorded as “transient increase”. The molecule also had an EC50 at rat NPFF1 receptor [1] of 0.0093 µM. In addition, at rat NPFF1 receptor [1] (COS-7 cells), the “Maximum Effect (% NPFF), rat NPFF1” value turned out to be 100 % NPFF. For the same molecule, the “disappearance time of bladder contractions” value in the data set with anesthetized rats (0.3 to 3.0 mg/kg) was “dose-dependently increased”. Moreover, in the data set on anesthetized rats (fPP 0.1 mg/kg), the “effect on distension-induced rhythmic contractions of the bladder” value was “inhibited”. Further, the “Maximum Effect (% NPFF), rat NPFF2” value on rat NPFF2 receptor [2] is 100 % NPFF. Further, the inward current response entry on NPFF1 (SNORF2) (1 μM, holding potential −80 mV) is given as “robust inward currents”. For the same molecule, the “threshold for activation of inward current” value on NPFF1 (SNORF2) came to 30 nM. For the same molecule, the entries for the “Emax, total IP release” value at NPFF-1 receptor (NPFF1 + Gq/Gz chimera) and on NPFF-1 receptor (NPFF1 alone) were “approximately 1500 % basal” and “approximately 200 % basal”, respectively.
On to `NC(N)=NCCC[C@@H](NC(=O)C(c1ccccc1)c1ccccc1)C(=O)NCc1ccc(O)cc1` [BIBP 3226], for which the “pKi ± SEM, rat NPFF2” value at rat NPFF2 receptor [3] was found to be 5.8±0.02. In the data set with normotensive rats (setting [6]), the “block of pressor response to fPP” value is on record as “completely blocked”, the “block of pressor response to pLeu,Pro-NPY” value is “completely blocked” and the “reduction of pressor response to NPFF” value is reported as approximately 50%. Also, at rat NPFF1 receptor [1] (COS-7 cells), the “Maximum Effect (% NPFF), rat NPFF1” value stood at 0 % NPFF. Moreover, the EC50 at rat NPFF1 receptor [1] (setting [7]) was more than 10 µM. In the data set on anesthetized rats (0.3 mg/kg), the “block of inhibitory effect of fPP on micturition” value is “not blocked” and the “block of inhibitory response to NPFF on micturition” value is “did not block”. The “pKi ± SEM, rat NPFF1” value at rat NPFF1 receptor [4] (Table 3) was determined as 7.6±0.04. On rat NPFF2 receptor [2], the EC50 is 0.944 µM and the “Maximum Effect (% NPFF), rat NPFF2” value is 67 % NPFF. In addition, the “pKi ± SEM, human NPFF2” value at human NPFF2 receptor is 5.9 ± 0.04. For the same molecule, the “pKi ± SEM, human NPFF1” value on human NPFF1 receptor (Table 3) is listed as 6.9 ± 0.04.
Regarding `CC(C)C[C@H](NC(=O)[C@H](N)Cc1ccc(O)cc1)C(=O)N(C)[C@@H](Cc1ccccc1)C(=O)N[C@@H](CCC(N)=O)C(=O)N1CCC[C@H]1C(=O)N[C@@H](CCC(N)=O)C(=O)N[C@@H](CCCN=C(N)N)C(=O)N[C@@H](Cc1ccccc1)C(N)=O` [(D-Tyr^1-(NMe)Phe^3)NPFF] (H-[dY]L[NMeF]QPQRF-NH2), the Ki at rat NPFF2 receptor [3] (read-out: pKi ± SEM, rat NPFF2 (converted)) is 2 nM; at rat NPFF1 receptor [4] (Table 3, read-out: pKi ± SEM, rat NPFF1 (converted)), 1.58 nM; on human NPFF2 receptor (read-out: pKi ± SEM, human NPFF2 (converted)), 3.16 nM; at human NPFF1 receptor (Table 3, read-out: pKi ± SEM, human NPFF1 (converted)) it was 7.94 nM. For the same molecule, the “stable after incubation with rat spinal cord membranes” value in [5] (150 min. incubation) is 90%.
Consider `NC(N)=NCCC[C@H](NC(=O)C(c1ccccc1)c1ccccc1)C(=O)NCc1ccc(O)cc1` [BIBP3435], for which, on human NPY Y1 receptor, the “binding affinity, human NPY Y1 receptor” value is given as > 10,000 nM. Also, the “Maximum Effect (% NPFF), rat NPFF1” value at rat NPFF1 receptor [1] (COS-7 cells) was 0 % NPFF. In addition, the EC50 on rat NPFF1 receptor [1] (setting [7]) was more than 10 µM; at rat NPFF2 receptor [2] it was 5.42 µM. Further, at rat NPFF2 receptor [2], the “Maximum Effect (% NPFF), rat NPFF2” value came to 71 % NPFF.
On to YLFQPQRF-NH2 [Y8Fa], for which, in data set [5] (after 30 minutes), the “degradation on incubation with rat spinal cord membranes” value was “fully degraded”.
